Results from patent US10994010B2, “Selective targeting of the CD40L/Mac-1 interaction by small peptide inhibitors and its use for the treatment of inflammation and atherogenesis” (Universitaetsklinikum Freiburg, priority 2010, dated 2021).
No end group written: not given here.

What was measured:
[1] = system: adhesion of THP-1 cells to CD40L; test: Static adhesion assay: activated THP-1 cells on immobilized CD40L; format: cell-based; conditions: peptides 50 μM
Method: (§1) 96-well plates (Nunc) were coated with sCD40L and incubated with CHO cells expressing constitutively activated Mac-1, as described previously, or THP-1 cells. Cells were allowed to adhere for 20 to 50 minutes. Blocking antibodies (10 μg/ml) were pre-incubating with the cells. As indicated, assays were carried out in the presence of peptides (50 μM). Permeabilization buffer (6 mg/ml phosphatase substrate (Sigma), 1% Triton X-100, 50 mM sodium acetate, pH 5.5) was added to quantify adhering cells by colorimetric reaction. Alternatively, adhering cells were counted. Murine EC were isolated as previously described. Mac-1 expressing CHO were loaded with CFDA-SE (Invitrogen), allowed to adhere for 45 minutes, and quantified under the fluorescence microscope. […] Adhering and rolling cells were quantified in a parallel flow chamber system (Glycotech) at the indicated shear rates and in the presence of the indicated peptides (1 μM) or antibodies (10 μg/ml). […]
96-well plates (Nunc) were coated with sCD40L (10 μg/ml) in PBS overnight at 4° C. […] After removal of unbound cells by washing with PBS, permeabilization buffer (6 mg/ml phosphatase substrate (Sigma), 1% Triton X-100, 50 mM sodium acetate, pH 5.5) was added for 1 hour at 37° C. and adhering cells were quantified by colorimetric reaction at 405 nm. Alternatively, adhering cells were counted under the microscope (Zeiss). […]

[2] = system: Mac-1 expressing CHO cells; test: Flow cytometry: binding of CD40L to Mac-1 expressing CHO cells; format: cell-based; conditions: peptides 50 μM
Method: (§2) Flow cytometric analysis, platelet activation assays, and quantification of leukocyte-platelet aggregates, were performed as previously described (Zirlik et al., 2007). Binding of cM7 to CD40L-expressing murine fibroblasts was determined by quantification of FITC-coupled cM7. Binding of CD40L to Mac-1 expressing CHO-cells or human leukocytes was performed by incubation with CD40L (10 μg/ml) and subsequent detection with anti-PentaHis antibody (Qiagen).
(§3) Flow cytometric analyses, as well as platelet activation assays and quantification of leukocyte-platelet aggregates were performed as previously described (Quezada et al., Ann. Rev. Immunol. (2004), pp 307-328). Briefly, murine blood samples were taken by intracardiac puncture. Red cells were lyzed in 155 mM NH4Cl, 5.7 mM K2HPO4, 0.1 mM EDTA, pH 7.3. […] Antibodies for epitope specific fluorescence-activated cell sorting (FACS Calibur, BD) included anti-CD11b, anti-CD115, anti-Gr-1, anti-CD4, anti-CD8, anti-CD20, anti-CD41, anti-CD62P, anti-CD54, anti-CD102, and anti-CD106 (all from Ebioscience). Binding of cM7 to CD40L- or mock-transfected murine fibroblasts was determined by incubation of FITC-cM7 at the indicated concentrations with cells for 30 min at 37° C. and subsequent quantification of the fluorescence in the FL-1 channel. […]

[3] = target: T1, CD40L (Homo sapiens, UniProt P29965); test: Solid phase assay: direct binding of biotinylated CD40L to immobilized peptides
T1 construct: inserting the coding DNA for amino acids E^108 to L^261 in pHOG-21; c-myc (N); His (N); trimerization domain (N); made in house; host or cells: E. coli TG-1
T1 sequence (P29965 108-261): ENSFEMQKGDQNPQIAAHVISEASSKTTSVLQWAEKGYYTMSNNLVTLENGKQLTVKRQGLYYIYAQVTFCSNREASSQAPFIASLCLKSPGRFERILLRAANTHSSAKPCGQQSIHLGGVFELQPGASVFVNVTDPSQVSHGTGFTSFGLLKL
Method: (§4) Solid phase binding assay. Recombinant CD40L was incubated with immobilized Mac-1 I-domain in the presence or absence of blocking peptides. Binding of sCD40L was detected by addition of anti-cmyc-HRP (Invitrogen), TMB-substrate (Pierce), and colorimetric reaction. Alternatively, CD40L (Provitro) was immobilized, and binding of the recombinant Mac-1 I-domain was quantified by addition of anti-His-Biotin (Qiagen), and HRP-coupled streptavidin (Pierce). For the binding to immobilized peptides, CD40L was biotinylated with the Micro Biotinylation Kit (Sigma). A mixture of equal molarities of all peptides served as the positive control in this assay.
The recombinant Mac-1 I-domain was immobilized in 96-well plates (Nunc) in PBS at 4° C. overnight. […] Effect of the peptides M1-M8 was assessed by incubating CD40L (10 μg/ml) in the presence of peptides (50 μM). […] Binding was quantified by addition of TMB-substrate (Pierce), colorimetric reaction at 450 nm. […] Binding of the recombinant Mac-1 I-domain was quantified by addition of anti-His-Biotin monoclonal antibody (Qiagen), HRP-coupled streptavidin (Pierce) and colorimetric reaction at 450 nm. […] For quantification of the binding of CD40L to peptides, peptides were immobilized in 96-well plates overnight at 4° C. in 50 mM sodium carbonate, pH 10.6. […] Absorbance on BSA-coated wells served as negative control and was subtracted.

[4] = system: human granulocytes and monocytes; test: Flow cytometry: binding of CD40L to human granulocytes and monocytes; format: cell-based
Method: as §2, §3

[5] = target: T2, CD40L binding to Mac-1 I-domain (Homo sapiens, UniProt P29965); test: Solid phase binding assay: blocking of CD40L binding to immobilized Mac-1 I-domain by peptides; conditions: for blocking of CD40L / Mac-1 I-domain binding: peptides 50 μM
T2 construct: inserting the coding DNA for amino acids E^108 to L^261 in pHOG-21; His (N); trimerization domain (N); made in house
T2 sequence (P29965 108-261): T1 sequence (P29965 108-261)
Method: as §4
The recombinant Mac-1 I-domain was immobilized in 96-well plates (Nunc) in PBS at 4° C. overnight. After blocking in 2% BSA/PBS and subsequent washing with PBS, recombinant CD40L was added to the wells in the indicated concentrations and incubated for 2 hours at 37° C. Effect of the peptides M1-M8 was assessed by incubating CD40L (10 μg/ml) in the presence of peptides (50 μM). After removing of unbound CD40L by washing with 0.1% Tween-20/PBS, anti-c-myc-HRP (Invitrogen) was added and incubated for 2 hours at room temperature. Binding was quantified by addition of TMB-substrate (Pierce), colorimetric reaction at 450 nm. Alternatively, CD40L without a His-tag (Provitro) was immobilized and blocked as described above. Binding of the recombinant Mac-1 I-domain was quantified by addition of anti-His-Biotin monoclonal antibody (Qiagen), HRP-coupled streptavidin (Pierce) and colorimetric reaction at 450 nm. For the specific binding of the Mac-1 I-domain BSA-coated wells were subtracted from the CD40L-coated. Kd was estimated using a one-site binding hyperbola nonlinear regression model with the Software Prism (Graphpad). For quantification of the binding of CD40L to peptides, peptides were immobilized in 96-well plates overnight at 4° C. in 50 mM sodium carbonate, pH 10.6. CD40L was biotinylated using the Micro-Biotinylation-Kit (Sigma) following the manufacturer's instructions and detected by HRP-coupled streptavidin (Pierce) and colorimetric reaction. A mixture of equal molarities of all peptides served as positive control. Absorbance on BSA-coated wells served as negative control and was subtracted.

[6] = system: adhesion of Mac-1-CHO cells to GPIbα; test: Dynamic flow chamber assay: Mac-1-CHO cells on GPIbα; format: cell-based; conditions: peptides 1 μM
Method: as §1
For dynamic adhesion assays, 35 mm dishes were coated overnight at 4° C. with 1% BSA, CD40L, GPIbα (Abnova), ICAM-1 (R&D systems) or fibrinogen (Sigma), at a concentration of 10 μg/ml, and 30 μg/ml, respectively. […] Cells were quantified under the microscope (Olympus). […] Adhesion and rolling of peritoneal exudate cells on isolated murine endothelial cells was quantified as described above. […]

EQLKKSKTL [Peptide M7]
blocking of adhesion of THP-1 cells to CD40L [1]: most efficiently blocked adhesion of THP-1 cells to CD40L | blocking of binding of CD40L to Mac-1-CHO cells [2]: neutralized binding of CD40L | direct binding of CD40L to immobilized peptide [3]: mediated direct binding to CD40L | blocking of binding of CD40L to human granulocytes and monocytes [4]: the only peptide blocking binding of CD40L to human granulocytes and monocytes | IC50 ([5]; concentration dependent): ~4 µM | blocking of CD40L / Mac-1 I-domain binding [5]: emerged as potential candidate inhibitors

PITQLLGRTHTATGIRK (therapeutically active peptide) [Peptide M2, GPIbα-specific control peptide]
effect on adhesion of Mac-1-CHO cells to GPIbα [6]: blocked the interaction between Mac-1 and GPIbα | blocking of CD40L / Mac-1 I-domain binding [5]: not affecting CD40L-Mac-1 binding
